This note sets out measurements from ChEMBL document CHEMBL1201862, “PubChem BioAssay data set” (2004).

Common to all, as to type: functional
Assay [1] addresses T1, Sentrin-specific protease 7 (Homo sapiens, UniProt Q9BQF6).
T1 sequence (Q9BQF6 whole entry): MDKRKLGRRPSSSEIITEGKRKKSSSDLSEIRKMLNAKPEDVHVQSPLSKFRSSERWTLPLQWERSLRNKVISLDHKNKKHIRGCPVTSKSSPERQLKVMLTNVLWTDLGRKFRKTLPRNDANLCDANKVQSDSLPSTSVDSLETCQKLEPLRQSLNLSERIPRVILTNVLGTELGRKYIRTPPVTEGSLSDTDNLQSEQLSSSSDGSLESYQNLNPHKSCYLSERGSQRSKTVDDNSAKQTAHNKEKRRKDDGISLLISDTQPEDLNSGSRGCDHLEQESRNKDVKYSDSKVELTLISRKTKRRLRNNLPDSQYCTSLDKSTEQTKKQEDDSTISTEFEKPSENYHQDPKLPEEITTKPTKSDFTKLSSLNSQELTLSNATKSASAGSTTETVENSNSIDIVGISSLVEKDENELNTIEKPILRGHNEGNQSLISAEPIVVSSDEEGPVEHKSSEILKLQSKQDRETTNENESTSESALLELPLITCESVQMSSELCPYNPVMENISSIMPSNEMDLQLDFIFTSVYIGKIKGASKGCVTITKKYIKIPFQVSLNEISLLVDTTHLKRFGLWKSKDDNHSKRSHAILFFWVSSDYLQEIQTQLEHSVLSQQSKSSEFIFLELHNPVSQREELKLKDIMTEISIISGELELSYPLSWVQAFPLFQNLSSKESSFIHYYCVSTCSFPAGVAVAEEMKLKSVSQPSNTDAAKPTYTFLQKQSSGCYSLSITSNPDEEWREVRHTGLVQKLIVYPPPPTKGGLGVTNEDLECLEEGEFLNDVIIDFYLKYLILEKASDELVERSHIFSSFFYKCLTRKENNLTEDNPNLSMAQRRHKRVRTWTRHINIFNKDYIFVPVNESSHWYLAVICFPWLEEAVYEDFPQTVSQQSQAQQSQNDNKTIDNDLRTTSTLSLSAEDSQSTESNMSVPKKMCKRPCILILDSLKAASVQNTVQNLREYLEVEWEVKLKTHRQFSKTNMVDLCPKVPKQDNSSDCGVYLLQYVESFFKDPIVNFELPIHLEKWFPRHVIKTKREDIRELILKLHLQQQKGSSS
Put plainly: inhibition of human SENP7 cleavage activity – biochemical, luminescence, SAR follow-up (AID 504497).

The target of assay [2] is Serine/threonine-protein kinase 17A (Homo sapiens, UniProt Q9UEE5).
The target of assay [3] is MAP kinase-activated protein kinase 5 (Homo sapiens, UniProt Q8IW41).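 Note: measured as one member of a kinome panel.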
In assay [4] the target is Protein kinase C gamma type (Homo sapiens, UniProt P05129).
The target in assay [5] is Mitogen-activated protein kinase kinase kinase kinase 2 (Homo sapiens, UniProt Q12851).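 Note: measured as one member of a kinome-wide kinase panel, with MAP4K2 as the panel entry.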
Assay [6] concerns the target Mitogen-activated protein kinase 1 (Homo sapiens, UniProt P28482).
The target of assay [7] is Cyclin-dependent kinase 1 (Homo sapiens, UniProt P06493).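 Note: Kinome-wide panel profiling, with the target listed as panel member CDC2.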
In assay [8] the target is Vascular endothelial growth factor receptor 1 (Homo sapiens, UniProt P17948).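 Note: measured within a kinome-wide profiling panel, FLT1 as the panel member.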
In assay [9] the target is Serine/threonine-protein kinase PLK1 (Homo sapiens, UniProt P53350).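 Note: PLK1 measured as one member of a kinome-wide profiling panel.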
The target in assay [10] is Mitogen-activated protein kinase kinase kinase kinase 4 (Homo sapiens, UniProt O95819).

Active and inactive are the calls of the source.

As usually defined, the IC50 is the concentration at which inhibition is half-maximal. A word on the Ki: it is a dissociation constant, usually derived from enzyme kinetics or from competition with a known ligand.

Chain of Mitogen-activated protein kinase kinase kinase kinase 4 (O95819 whole entry): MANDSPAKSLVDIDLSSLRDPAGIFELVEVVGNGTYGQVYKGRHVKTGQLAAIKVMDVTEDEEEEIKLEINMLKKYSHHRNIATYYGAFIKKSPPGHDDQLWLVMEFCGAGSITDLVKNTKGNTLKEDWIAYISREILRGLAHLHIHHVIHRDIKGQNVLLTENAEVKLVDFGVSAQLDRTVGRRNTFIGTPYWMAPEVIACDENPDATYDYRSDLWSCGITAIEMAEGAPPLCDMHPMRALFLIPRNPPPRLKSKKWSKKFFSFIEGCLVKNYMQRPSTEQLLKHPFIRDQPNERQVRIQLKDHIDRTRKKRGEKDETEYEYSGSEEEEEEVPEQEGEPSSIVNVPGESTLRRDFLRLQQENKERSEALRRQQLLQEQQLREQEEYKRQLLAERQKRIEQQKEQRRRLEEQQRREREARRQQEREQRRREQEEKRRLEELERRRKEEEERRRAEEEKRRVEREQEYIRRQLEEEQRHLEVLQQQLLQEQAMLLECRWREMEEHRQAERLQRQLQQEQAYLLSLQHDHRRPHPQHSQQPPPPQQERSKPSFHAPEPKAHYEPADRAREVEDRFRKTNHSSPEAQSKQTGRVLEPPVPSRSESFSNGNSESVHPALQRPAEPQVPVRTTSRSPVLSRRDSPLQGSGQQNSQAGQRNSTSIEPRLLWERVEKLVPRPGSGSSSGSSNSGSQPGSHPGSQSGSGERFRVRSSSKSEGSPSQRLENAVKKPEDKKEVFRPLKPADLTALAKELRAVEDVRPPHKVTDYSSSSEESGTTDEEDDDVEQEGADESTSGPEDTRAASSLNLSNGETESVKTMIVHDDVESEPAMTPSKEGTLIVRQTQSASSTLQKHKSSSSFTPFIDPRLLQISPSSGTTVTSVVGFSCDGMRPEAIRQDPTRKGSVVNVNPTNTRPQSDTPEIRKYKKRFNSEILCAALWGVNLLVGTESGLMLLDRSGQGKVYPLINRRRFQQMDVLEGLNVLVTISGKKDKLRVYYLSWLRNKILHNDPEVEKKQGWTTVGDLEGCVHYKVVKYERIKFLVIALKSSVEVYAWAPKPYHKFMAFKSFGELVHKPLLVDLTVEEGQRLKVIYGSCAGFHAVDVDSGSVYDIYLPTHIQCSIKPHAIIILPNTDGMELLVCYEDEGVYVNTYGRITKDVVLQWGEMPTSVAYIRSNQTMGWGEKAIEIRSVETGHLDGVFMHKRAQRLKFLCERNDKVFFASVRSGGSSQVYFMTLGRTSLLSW
Chain of Serine/threonine-protein kinase 17A (Q9UEE5 whole entry): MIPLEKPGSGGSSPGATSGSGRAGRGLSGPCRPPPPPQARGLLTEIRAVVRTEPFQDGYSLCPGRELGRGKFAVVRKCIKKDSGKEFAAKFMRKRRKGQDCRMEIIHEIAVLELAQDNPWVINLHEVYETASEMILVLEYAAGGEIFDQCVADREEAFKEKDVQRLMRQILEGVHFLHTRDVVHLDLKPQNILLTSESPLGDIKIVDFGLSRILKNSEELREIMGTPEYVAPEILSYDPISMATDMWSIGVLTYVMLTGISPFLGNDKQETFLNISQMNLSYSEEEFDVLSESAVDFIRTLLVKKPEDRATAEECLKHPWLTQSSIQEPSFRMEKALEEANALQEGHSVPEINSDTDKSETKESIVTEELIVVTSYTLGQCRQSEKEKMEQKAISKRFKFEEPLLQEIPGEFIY
Chain of Cyclin-dependent kinase 1 (P06493 whole entry): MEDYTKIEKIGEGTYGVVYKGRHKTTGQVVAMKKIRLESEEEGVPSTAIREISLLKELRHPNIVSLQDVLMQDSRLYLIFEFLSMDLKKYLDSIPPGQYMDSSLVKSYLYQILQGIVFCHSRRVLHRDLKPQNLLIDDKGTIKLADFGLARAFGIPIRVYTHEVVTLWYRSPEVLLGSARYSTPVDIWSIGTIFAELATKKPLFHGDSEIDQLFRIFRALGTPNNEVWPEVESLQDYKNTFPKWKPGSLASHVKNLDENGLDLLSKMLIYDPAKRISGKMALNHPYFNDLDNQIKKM
Chain of Serine/threonine-protein kinase PLK1 (P53350 whole entry): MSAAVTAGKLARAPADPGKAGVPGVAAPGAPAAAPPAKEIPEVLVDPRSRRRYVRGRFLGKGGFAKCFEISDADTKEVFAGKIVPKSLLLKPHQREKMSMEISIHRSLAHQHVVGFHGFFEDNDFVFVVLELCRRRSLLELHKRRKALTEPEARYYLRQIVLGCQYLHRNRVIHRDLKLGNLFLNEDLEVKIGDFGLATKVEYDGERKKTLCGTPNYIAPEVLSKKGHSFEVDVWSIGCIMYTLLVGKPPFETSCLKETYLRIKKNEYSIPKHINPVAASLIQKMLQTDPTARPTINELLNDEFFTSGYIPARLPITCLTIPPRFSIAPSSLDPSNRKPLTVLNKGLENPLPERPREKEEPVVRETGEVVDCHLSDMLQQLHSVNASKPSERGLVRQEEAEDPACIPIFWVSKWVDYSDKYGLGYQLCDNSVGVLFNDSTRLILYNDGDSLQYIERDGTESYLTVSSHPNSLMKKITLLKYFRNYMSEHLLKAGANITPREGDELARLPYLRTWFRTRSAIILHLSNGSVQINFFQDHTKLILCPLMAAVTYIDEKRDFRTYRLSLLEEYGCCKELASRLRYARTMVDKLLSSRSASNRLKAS
Chain of Vascular endothelial growth factor receptor 1 (P17948 whole entry): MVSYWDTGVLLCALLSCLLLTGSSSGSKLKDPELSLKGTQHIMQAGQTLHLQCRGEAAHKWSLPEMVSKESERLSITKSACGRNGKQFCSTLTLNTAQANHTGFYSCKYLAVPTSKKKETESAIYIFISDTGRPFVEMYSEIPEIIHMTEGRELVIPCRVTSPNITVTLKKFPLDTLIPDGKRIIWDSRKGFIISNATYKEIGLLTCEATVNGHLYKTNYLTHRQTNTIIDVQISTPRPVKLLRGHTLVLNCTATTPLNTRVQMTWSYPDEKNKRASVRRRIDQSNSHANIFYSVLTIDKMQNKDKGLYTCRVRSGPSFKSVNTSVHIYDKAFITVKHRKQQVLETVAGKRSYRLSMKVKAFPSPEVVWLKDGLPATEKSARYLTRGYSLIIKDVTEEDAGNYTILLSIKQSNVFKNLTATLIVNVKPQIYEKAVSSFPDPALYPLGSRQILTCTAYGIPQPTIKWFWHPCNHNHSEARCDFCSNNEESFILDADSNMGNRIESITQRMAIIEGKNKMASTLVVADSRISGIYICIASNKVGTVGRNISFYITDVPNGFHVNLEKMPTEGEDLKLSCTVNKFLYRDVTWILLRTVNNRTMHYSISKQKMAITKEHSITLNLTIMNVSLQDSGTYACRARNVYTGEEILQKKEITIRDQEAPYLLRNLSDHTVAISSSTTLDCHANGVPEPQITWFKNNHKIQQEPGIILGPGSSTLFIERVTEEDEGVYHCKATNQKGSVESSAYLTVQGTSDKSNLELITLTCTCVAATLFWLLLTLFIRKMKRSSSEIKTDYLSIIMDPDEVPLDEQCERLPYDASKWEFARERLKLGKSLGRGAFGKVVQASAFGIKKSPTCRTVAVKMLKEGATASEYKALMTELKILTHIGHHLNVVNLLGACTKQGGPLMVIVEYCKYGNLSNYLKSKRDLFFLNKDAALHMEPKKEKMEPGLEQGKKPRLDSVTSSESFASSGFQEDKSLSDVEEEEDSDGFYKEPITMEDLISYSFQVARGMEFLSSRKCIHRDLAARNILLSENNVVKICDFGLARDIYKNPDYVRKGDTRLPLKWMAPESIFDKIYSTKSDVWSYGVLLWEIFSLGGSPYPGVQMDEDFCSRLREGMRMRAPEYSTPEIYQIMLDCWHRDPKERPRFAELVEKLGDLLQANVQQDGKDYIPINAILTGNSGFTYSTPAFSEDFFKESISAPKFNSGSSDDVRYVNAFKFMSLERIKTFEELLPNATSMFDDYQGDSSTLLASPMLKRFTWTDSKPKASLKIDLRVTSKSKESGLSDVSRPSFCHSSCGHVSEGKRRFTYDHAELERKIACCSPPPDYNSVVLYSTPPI
Chain of MAP kinase-activated protein kinase 5 (Q8IW41 whole entry): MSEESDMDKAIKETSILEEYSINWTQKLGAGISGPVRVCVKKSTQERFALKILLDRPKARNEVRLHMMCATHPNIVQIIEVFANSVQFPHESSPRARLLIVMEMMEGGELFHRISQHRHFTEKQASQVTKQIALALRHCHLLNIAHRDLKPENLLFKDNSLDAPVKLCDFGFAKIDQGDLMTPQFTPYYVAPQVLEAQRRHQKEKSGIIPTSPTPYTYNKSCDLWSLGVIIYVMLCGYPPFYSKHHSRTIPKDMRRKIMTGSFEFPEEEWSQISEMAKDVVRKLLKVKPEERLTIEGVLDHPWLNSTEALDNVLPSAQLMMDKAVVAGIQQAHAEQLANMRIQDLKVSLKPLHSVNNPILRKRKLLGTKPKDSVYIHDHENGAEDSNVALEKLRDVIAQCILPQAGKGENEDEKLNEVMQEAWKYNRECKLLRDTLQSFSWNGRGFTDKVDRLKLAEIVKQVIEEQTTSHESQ
Chain of Mitogen-activated protein kinase 1 (P28482 whole entry): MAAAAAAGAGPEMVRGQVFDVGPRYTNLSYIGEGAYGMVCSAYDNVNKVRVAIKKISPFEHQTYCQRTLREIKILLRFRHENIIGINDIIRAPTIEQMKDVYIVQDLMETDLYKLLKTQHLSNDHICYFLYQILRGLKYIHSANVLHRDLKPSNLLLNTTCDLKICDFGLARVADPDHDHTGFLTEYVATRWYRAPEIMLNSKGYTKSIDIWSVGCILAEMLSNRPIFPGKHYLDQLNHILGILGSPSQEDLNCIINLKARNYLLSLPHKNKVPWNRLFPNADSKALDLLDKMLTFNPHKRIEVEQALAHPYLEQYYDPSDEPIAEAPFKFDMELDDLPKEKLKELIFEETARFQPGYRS

Turning to `COc1ccc(C(C[N+](=O)[O-])c2c(C)[nH]n(-c3ccccc3)c2=O)cc1` (stereo not given), in assay [1], the IC50 was 12300 nM (active).
With `Oc1c2ccccc2c2c3c(cccc13)N=N2` [SP-600125], the inhibition constant Ki in assay [2] is 39.8 nM (active); in [3], > 1580 nM (inactive); in assay [4] it was 316 nM (active); in assay [5], 50.1 nM (active); in assay [6] it was 5010 nM (active); in [7] it was 1000 nM (active). The Ki was 200 nM (active) in assay [8], > 7940 nM (inactive) in [9] and 316 nM (active) in assay [10].
